Assay results taken from patent US10035800B2 (AbbVie Inc., priority 2013, dated 2018).
pKi: −log10 of the molar value.

Tests used:
BRD4 (BDII_E352-M457) = target: T1, BRD4 (BDII_E352-M457) (Homo sapiens, UniProt O60885); test: TR-FRET bromodomain binding assay, second bromodomain of BRD4; settings: TR-FRET assay protocol G (compound 0.92 μM-15 pM); 30 nM probe
T1 construct: protocol; made in house
Procedure: (§1) Bromodomain Domain Binding Assay
(§2) A time-resolved fluorescence resonance energy transfer (TR-FRET) assay was used to determine the affinities of compounds of the Examples listed in Table 1 for each bromodomain of BRD4. His-tagged first (BD1: amino acids K57-E168) and second (BD2: amino acids […]) bromodomains of BRD4 were expressed and purified. An Alexa647-labeled BET-inhibitor was used as the fluorescent probe in the assay.
(§3) Compound dilution series were prepared in DMSO via an approximately 3-fold serial dilution from one of the following: […]
(§4) Assay method E: 0.47 mM to 7.8 nM […]
(§5) Assay method G: 0.047 mM to 0.78 nM
(§6) or 5-fold serial dilution from one of the following: […]
(§7) Assay method B: 2.5 mM-797 nM […]
(§8) For Assay methods B, E, and G: Compound dilutions were added directly into white, low-volume assay plates (Perkin Elmer Proxiplate 384 Plus#6008280) using a Labcyte Echo in conjunction with Labcyte Access and Thermo Multidrop CombinL robotics. Compounds were then suspended in eight microliters (μL) of assay buffer (20 mM Sodium Phosphate, pH 6.0, 50 mM NaCl, 1 mM Ethylenediaminetetraacetic acid disodium salt dihydrate, 0.01% Triton X-100, 1 mM DL-Dithiothreitol) containing His-tagged bromodomain, Europium-conjugated anti-His antibody (Invitrogen PV5596) and Alexa-647-conjugated probe.
(§9) The final concentration of 1× assay mixture for assay methods A, B, C, D, E, F, and G contains 2% DMSO, 8 nM His-tagged bromodomain, 1 nM Europium-conjugated anti-His-tag antibody and 100 nM or 30 nM probe (for BDI or BDII, respectively) and compound concentration in the range of: 50 μM-16 nM for method A, 49.02 μM-15.63 nM for method B, 25 μM-423 pM for method C, 10 μM-169 pM for method D, 9.19 μM-150 pM for method E, 5 μM-85 pM for method F, and 0.92 μM-15 pM for method G.
(§10) After a one-hour equilibration at room temperature, TR-FRET ratios were determined using an Envision multilabel plate reader (Ex 340, Em 495/520).
(§11) TR-FRET data were normalized to the means of 24 no-compound controls (“high”) and 8 controls containing 1 μM un-labeled probe (“low”). Percent inhibition was plotted as a function of compound concentration and the data were fit with the 4 parameter logistic equation to obtain IC50s. Inhibition constants (Ki) were calculated from the IC50s, probe Kd and probe concentration. Typical Z′ values were between 0.65 and 0.75. The minimum significant ratio was determined to evaluate assay reproducibility (Eastwood et al., (2006) J Biomol Screen, 11: 253-261). The MSR was determined to be 2.03 for BDI and 1.93 for BDII, and a moving MSR (last six run MSR overtime) for both BDI and BDII was typically <3.

BRD4 (BDI_K57-E168) = target: T2, BRD4 (BDI_K57-E168) (Homo sapiens, UniProt O60885); test: TR-FRET bromodomain binding assay, first bromodomain of BRD4; settings: TR-FRET assay protocol G (compound 0.92 μM-15 pM); 100 nM probe
T2 construct: BD1: amino acids K57-E168; made in house
Procedure: as §1, §2, §3, §4, §5, §6, §7, §8, §9, §10, §11

Compound | pKi (BRD4 (BDII_E352-M457)) | pKi (BRD4 (BDI_K57-E168))
COc1ccc(C(=O)N2Cc3c[nH]c4c(=O)n(C)cc(c34)-c3cc(CS(C)(=O)=O)ccc32)cc1 [Example 110, 4-(4-methoxybenzoyl)-10-methyl-7-((methylsulfonyl)methyl)-3,4-dihydro-1H-1,4,10-triazadibenzo[cd,f]azulen-11(10H)-one] | 7.70 | 7.38
Cn1cc2c3c(c[nH]c3c1=O)CN(C(=O)CCc1ccccc1)c1ccc(CS(C)(=O)=O)cc1-2 [Example 116, 10-methyl-7-((methylsulfonyl)methyl)-4-(3-phenylpropanoyl)-3,4-dihydro-1H-1,4,10-triazadibenzo[cd,f]azulen-11(10H)-one] | 7.95 | 7.80
CN(C)C(NCC1c2c[nH]c3c(=O)n(C)cc(c23)-c2cc(CS(C)(=O)=O)ccc2N1c1ccc(F)cc1F)=[N+](C)C (stereo not drawn) [Example 130, N-((((4-(2,4-difluorophenyl)-10-methyl-7-((methylsulfonyl)methyl)-11-oxo-3,4,10,11-tetrahydro-1H-1,4,10-triazadibenzo[cd,f]azulen-3-yl)methyl)amino)(dimethylamino)methylene)-N-methylmethanaminium] | 7.84 | 6.67
CCN1CCCC(CN2Cc3c[nH]c4c(=O)n(C)cc(c34)-c3cc(CS(C)(=O)=O)ccc32)C1 (stereo not drawn) [Example 150, 4-((1-ethylpiperidin-3-yl)methyl)-10-methyl-7-((methylsulfonyl)methyl)-3,4-dihydro-1H-1,4,10-triazadibenzo[cd,f]azulen-11(10H)-one] | 7.97 | 8.39
Cn1cc2c3c(c[nH]c3c1=O)CN(C1CCC(N)CC1)c1ccc(S(C)(=O)=O)cc1-2 (stereo not drawn) [Example 171, 4-((trans)-4-aminocyclohexyl)-10-methyl-7-(methylsulfonyl)-3,4-dihydro-1H-1,4,10-triazadibenzo[cd,f]azulen-11(10H)-one] | 7.53 | 7.79
CC1OCCC1N1Cc2c[nH]c3c(=O)n(C)cc(c23)-c2cc(CS(C)(=O)=O)ccc21 (stereo not drawn) [Example 180, 10-methyl-7-((methylsulfonyl)methyl)-4-(2-methyltetrahydrofuran-3-yl)-3,4-dihydro-1H-1,4,10-triazadibenzo[cd,f]azulen-11(10H)-one] | 8.57 | 8.82
CN1CCC(N2Cc3c[nH]c4c(=O)n(C)cc(c34)-c3cc(CS(C)(=O)=O)ccc32)CC1 [Example 181] | 7.77 | 8.48
CC(C1CCOC1=O)N1Cc2c[nH]c3c(=O)n(C)cc(c23)-c2cc(CS(C)(=O)=O)ccc21 (stereo not drawn) [Example 184, 10-methyl-7-((methylsulfonyl)methyl)-4-(1-(2-oxotetrahydrofuran-3-yl)ethyl)-3,4-dihydro-1H-1,4,10-triazadibenzo[cd,f]azulen-11(10H)-one] | 8.17 | 8.36
CN1CCC(N2Cc3c[nH]c4c(=O)n(C)cc(c34)-c3cc(CS(C)(=O)=O)ccc32)C1 (stereo not drawn) [Example 187] | 7.30 | 8.24
CN1CCCC(N2Cc3c[nH]c4c(=O)n(C)cc(c34)-c3cc(CS(C)(=O)=O)ccc32)CC1 (stereo not drawn) [Example 189] | 7.65 | 8.24

Continued, values first:

pKi (BRD4 (BDII_E352-M457)) | pKi (BRD4 (BDI_K57-E168)) | Compound
7.58 | 7.46 | COc1cccc(CC(=O)N2Cc3c[nH]c4c(=O)n(C)cc(c34)-c3cc(CS(C)(=O)=O)ccc32)c1 [Example 104, 4-(2-(3-methoxyphenyl)acetyl)-10-methyl-7-((methylsulfonyl)methyl)-3,4-dihydro-1H-1,4,10-triazadibenzo[cd,f]azulen-11(10H)-one]
7.81 | 7.19 | Cn1cc2c3c(c[nH]c3c1=O)CN(C(=O)c1ccccc1)c1ccc(CS(C)(=O)=O)cc1-2 [Example 109, 4-benzoyl-10-methyl-7-((methylsulfonyl)methyl)-3,4-dihydro-1H-1,4,10-triazadibenzo[cd,f]azulen-11(10H)-one]
7.82 | 7.27 | Cn1cc2c3c(c[nH]c3c1=O)CN(C(=O)c1ccc(F)cc1F)c1ccc(CS(C)(=O)=O)cc1-2 [Example 112, 4-(2,4-difluorobenzoyl)-10-methyl-7-((methylsulfonyl)methyl)-3,4-dihydro-1H-1,4,10-triazadibenzo[cd,f]azulen-11(10H)-one]
7.96 | 7.07 | Cn1cc2c3c(c[nH]c3c1=O)CN(C(=O)c1ccccc1F)c1ccc(CS(C)(=O)=O)cc1-2 [Example 113, 4-(2-fluorobenzoyl)-10-methyl-7-((methylsulfonyl)methyl)-3,4-dihydro-1H-1,4,10-triazadibenzo[cd,f]azulen-11(10H)-one]
7.59 | 6.95 | Cn1cc2c3c(c[nH]c3c1=O)CN(C(=O)c1cccc3ccccc13)c1ccc(CS(C)(=O)=O)cc1-2 [Example 114, 4-(1-naphthoyl)-10-methyl-7-((methylsulfonyl)methyl)-3,4-dihydro-1H-1,4,10-triazadibenzo[cd,f]azulen-11(10H)-one]
7.11 | 7.22 | Cn1cc2c3c(c[nH]c3c1=O)C(C(=O)NC1CCCCC1)N(c1ccc(F)cc1F)c1ccc(CS(C)(=O)=O)cc1-2 (stereo not drawn) [Example 158, N-cyclohexyl-4-(2,4-difluorophenyl)-10-methyl-7-((methylsulfonyl)methyl)-11-oxo-3,4,10,11-tetrahydro-1H-1,4,10-triazadibenzo[cd,f]azulene-3-carboxamide]
7.22 | 7.33 | Cn1cc2c3c(c[nH]c3c1=O)C(C(=O)NCCO)N(c1ccc(F)cc1F)c1ccc(CS(C)(=O)=O)cc1-2 (stereo not drawn) [Example 162, 4-(2,4-difluorophenyl)-N-(2-hydroxyethyl)-10-methyl-7-((methylsulfonyl)methyl)-11-oxo-3,4,10,11-tetrahydro-1H-1,4,10-triazadibenzo[cd,f]azulene-3-carboxamide]
7.34 | 7.24 | Cn1cc2c3c(c[nH]c3c1=O)C(C(=O)NCc1cocn1)N(c1ccc(F)cc1F)c1ccc(CS(C)(=O)=O)cc1-2 (stereo not drawn) [Example 163, 4-(2,4-difluorophenyl)-10-methyl-7-((methylsulfonyl)methyl)-N-(oxazol-4-ylmethyl)-11-oxo-3,4,10,11-tetrahydro-1H-1,4,10-triazadibenzo[cd,f]azulene-3-carboxamide]
7.10 | 7.09 | Cn1cc2c3c(c[nH]c3c1=O)C(C(=O)NCC(C)(C)O)N(c1ccc(F)cc1F)c1ccc(CS(C)(=O)=O)cc1-2 (stereo not drawn) [Example 165, 4-(2,4-difluorophenyl)-N-(2-hydroxy-2-methylpropyl)-10-methyl-7-((methylsulfonyl)methyl)-11-oxo-3,4,10,11-tetrahydro-1H-1,4,10-triazadibenzo[cd,f]azulene-3-carboxamide]
6.91 | 7.03 | Cn1cc2c3c(c[nH]c3c1=O)C(C(=O)NCCCCc1ccccc1)N(c1ccc(F)cc1F)c1ccc(CS(C)(=O)=O)cc1-2 (stereo not drawn) [Example 168, 4-(2,4-difluorophenyl)-10-methyl-7-((methylsulfonyl)methyl)-11-oxo-N-(4-phenylbutyl)-3,4,10,11-tetrahydro-1H-1,4,10-triazadibenzo[cd,f]azulene-3-carboxamide]
< 6.39 | < 6.62 | Cn1cc2c3c(c[nH]c3c1=O)C(c1cc(C(C)(C)C)cc(C(C)(C)C)c1)N(c1ccc(F)cc1F)c1ccc(CS(C)(=O)=O)cc1-2 (stereo not drawn) [Example 223, 3-(3,5-di-tert-butylphenyl)-4-(2,4-difluorophenyl)-10-methyl-7-((methylsulfonyl)methyl)-3,4-dihydro-1H-1,4,10-triazadibenzo[cd,f]azulen-11(10H)-one]
